Here are results for eleven compounds from paper PMC10023787, “Trio-pharmacophore DNA-encoded chemical library for simultaneous selection of fragments and linkers” (Nature Communications, 2023).

Read-outs that look alike come from different tables or passages of the source.

The IC50 is the concentration at which inhibition is half-maximal.

Test [1] has as its target T1, MMP-2 (Homo sapiens, UniProt P08253).
T1 construct: purchased Sino Biological 10082-HNAH
T1 sequence (P08253 110-660): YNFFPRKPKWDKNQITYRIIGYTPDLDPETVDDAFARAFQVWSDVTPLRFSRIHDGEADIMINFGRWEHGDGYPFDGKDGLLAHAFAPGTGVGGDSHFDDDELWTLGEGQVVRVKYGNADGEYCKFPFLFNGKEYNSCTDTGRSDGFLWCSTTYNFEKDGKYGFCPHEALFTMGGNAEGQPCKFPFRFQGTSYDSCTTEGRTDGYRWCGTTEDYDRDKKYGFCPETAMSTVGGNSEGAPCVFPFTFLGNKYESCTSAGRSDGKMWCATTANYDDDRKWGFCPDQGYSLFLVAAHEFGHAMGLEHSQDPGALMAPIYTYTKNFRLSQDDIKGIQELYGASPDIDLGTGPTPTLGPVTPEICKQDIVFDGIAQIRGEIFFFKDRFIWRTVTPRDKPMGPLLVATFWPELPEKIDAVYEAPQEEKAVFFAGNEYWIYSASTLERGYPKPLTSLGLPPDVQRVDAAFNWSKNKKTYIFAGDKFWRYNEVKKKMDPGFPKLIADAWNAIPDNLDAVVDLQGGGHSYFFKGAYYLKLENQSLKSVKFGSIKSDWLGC
In words: MMP-2 inhibition assay (fluorogenic peptide substrate). Type of test: biochemical. To be noted: for IC50: n.d: not detected. The method, boiled down:
(§1)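 Human proMMP-2 and proMMP-9 were activated with 1 mM APMA (37 °C, 2 h), then used at 6.5 nM (MMP-2) or 10 nM (MMP-9) in Tris/NaCl/CaCl2/Brij 35 buffer, pH 7.5. Enzyme was preincubated with compound 30 min at RT; 25 μM DNP-Pro-Leu-Gly-Met-Trp-Ser-Arg substrate was added and fluorescence (ex 280/em 360 nm) followed 30 min. IC50 from logistic fits of Vmax.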

The target in test [2] is T2, MMP-9 (Homo sapiens, UniProt P14780).
T2 construct: purchased Sino Biological 10327-HNAH
In words: MMP-9 inhibition assay (fluorogenic peptide substrate). The test is classed as biochemical. To be noted: for IC50: n.d: not detected. The procedure, abridged:
as §1

The mark [3] stands for this setting: mean ± SE, Fig. 5d unit inferred, µM, read-out: IC50.
Where [4] appears, read: mean ± SE, Fig. 5e prints no unit, µM, read-out: IC50.
The mark [5] stands for this setting: Figure 5d, fragment combination joined by linker, read-out: MMP2 IC50.
Where [6] appears, read: Figure 5d, fragment combination joined by linker, read-out: MMP9 IC50.

T2 sequence (P14780 107-707 limits assumed): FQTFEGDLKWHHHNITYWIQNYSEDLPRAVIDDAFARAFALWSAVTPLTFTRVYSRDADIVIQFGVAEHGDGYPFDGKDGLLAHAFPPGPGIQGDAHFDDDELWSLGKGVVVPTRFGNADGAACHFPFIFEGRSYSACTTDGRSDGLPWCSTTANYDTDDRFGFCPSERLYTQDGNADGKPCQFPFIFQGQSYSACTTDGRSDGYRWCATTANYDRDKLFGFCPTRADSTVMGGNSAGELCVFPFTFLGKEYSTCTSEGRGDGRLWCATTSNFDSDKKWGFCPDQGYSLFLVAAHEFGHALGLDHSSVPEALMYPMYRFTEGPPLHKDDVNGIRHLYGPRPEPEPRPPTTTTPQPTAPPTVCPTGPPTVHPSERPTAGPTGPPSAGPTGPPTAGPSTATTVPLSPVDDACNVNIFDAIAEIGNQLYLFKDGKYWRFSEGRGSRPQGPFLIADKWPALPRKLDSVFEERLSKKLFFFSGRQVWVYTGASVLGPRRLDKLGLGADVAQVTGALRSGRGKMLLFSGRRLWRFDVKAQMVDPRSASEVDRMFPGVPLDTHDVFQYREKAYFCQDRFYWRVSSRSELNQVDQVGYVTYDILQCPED

As to `O=C(/C=C/CCCCNC(=O)c1cncc(O)c1)CC(=O)NCCNC(=O)Cn1cnc2c(oc3ccccc32)c1=O` [182+828 Linker 12], the remaining activity at 0.0168 µM in test [1] (MMP-2, concentration 0.0168 µM, read-out: Mean (MMP-2, Supplementary fig 16)) was found to be 102%. In addition, in test [1] (MMP-2, concentration 0.08 µM, read-out: Mean (MMP-2, Supplementary fig 16)), the remaining activity at 0.08 µM was found to be 100%. For the same compound, the remaining activity at 0.42 µM in test [1] (MMP-2, concentration 0.42 µM, read-out: Mean (MMP-2, Supplementary fig 16)) is 98.9%. For the same compound, the remaining activity at 2.1 µM in test [1] (MMP-2, concentration 2.10 µM, read-out: Mean (MMP-2, Supplementary fig 16)) worked out at 113%. In addition, the remaining activity at 10.52 µM in test [1] (MMP-2, concentration 10.52 µM, read-out: Mean (MMP-2, Supplementary fig 16)) was determined as 85.5%. The remaining activity at 52.6 µM in test [1] (MMP-2, concentration 52.60 µM, read-out: Mean (MMP-2, Supplementary fig 16)) was found to be 48.1%. In test [1] (MMP-2, concentration 263.00 µM, read-out: Mean (MMP-2, Supplementary fig 16)), the remaining activity at 263 µM is 6.96%. Further, the remaining activity at 1315 µM in test [1] (MMP-2, concentration 1315.00 µM, read-out: Mean (MMP-2, Supplementary fig 16)) is 0%. Also, the IC50 is 50.3 ± 11.1 µM in test [1] (setting [3]) and 45.9 ± 24.2 µM in test [2] (setting [4]). Also, the remaining activity at 0.0466 µM in test [2] (MMP-9, concentration 0.0466 µM, read-out: Mean (MMP-9, Supplementary fig 16)) was determined as 97.3%. The remaining activity at 0.23 µM in test [2] (MMP-9, concentration 0.23 µM, read-out: Mean (MMP-9, Supplementary fig 16)) came out at 81.8%. Moreover, the remaining activity at 1.17 µM in test [2] (MMP-9, concentration 1.17 µM, read-out: Mean (MMP-9, Supplementary fig 16)) worked out at 81.4%. Also, in test [2] (MMP-9, concentration 5.83 µM, read-out: Mean (MMP-9, Supplementary fig 16)), the remaining activity at 5.83 µM was determined as 70.8%. For the same compound, the remaining activity at 29.14 µM in test [2] (MMP-9, concentration 29.14 µM, read-out: Mean (MMP-9, Supplementary fig 16)) amounted to 63.8%. Besides, in test [2] (MMP-9, concentration 145.72 µM, read-out: Mean (MMP-9, Supplementary fig 16)), the remaining activity at 145.72 µM is 15.2%. For the same compound, the remaining activity at 728.6 µM in test [2] (MMP-9, concentration 728.60 µM, read-out: Mean (MMP-9, Supplementary fig 16)) was 0%.
Turning to `O=C(CSCCNC(=O)c1cncc(O)c1)NCCNC(=O)Cn1cnc2c(oc3ccccc32)c1=O` [182+828 Linker 24], the remaining activity at 0.011 µM in test [1] (MMP-2, concentration 0.011 µM, read-out: Mean (MMP-2, Supplementary fig 16)) turned out to be 96.4%. Besides, the remaining activity at 0.0548 µM is 104% in test [1] (MMP-2, concentration 0.0548 µM, read-out: Mean (MMP-2, Supplementary fig 16)) and 95.4% in test [2] (MMP-9, concentration 0.0548 µM, read-out: Mean (MMP-9, Supplementary fig 16)). Further, the remaining activity at 0.27 µM in test [1] (MMP-2, concentration 0.27 µM, read-out: Mean (MMP-2, Supplementary fig 16)) was found to be 97.6%; in test [2] (MMP-9, concentration 0.27 µM, read-out: Mean (MMP-9, Supplementary fig 16)), 85.7%. Further, the remaining activity at 1.37 µM is 90.8% in test [1] (MMP-2, concentration 1.37 µM, read-out: Mean (MMP-2, Supplementary fig 16)) and 87.6% in test [2] (MMP-9, concentration 1.37 µM, read-out: Mean (MMP-9, Supplementary fig 16)). In addition, the remaining activity at 6.86 µM was 86.3% in test [1] (MMP-2, concentration 6.86 µM, read-out: Mean (MMP-2, Supplementary fig 16)) and 77.5% in test [2] (MMP-9, concentration 6.86 µM, read-out: Mean (MMP-9, Supplementary fig 16)). For the same compound, the remaining activity at 34.28 µM in test [1] (MMP-2, concentration 34.28 µM, read-out: Mean (MMP-2, Supplementary fig 16)) was 48.6%; in test [2] (MMP-9, concentration 34.28 µM, read-out: Mean (MMP-9, Supplementary fig 16)) it was 52.4%. The remaining activity at 171.4 µM in test [1] (MMP-2, concentration 171.40 µM, read-out: Mean (MMP-2, Supplementary fig 16)) worked out at 5.35%; in test [2] (MMP-9, concentration 171.40 µM, read-out: Mean (MMP-9, Supplementary fig 16)) it was 0%. The remaining activity at 857 µM stood at 0% in test [1] (MMP-2, concentration 857.00 µM, read-out: Mean (MMP-2, Supplementary fig 16)) and 0% in test [2] (MMP-9, concentration 857.00 µM, read-out: Mean (MMP-9, Supplementary fig 16)). Also, the IC50 in test [1] (setting [3]) is 33.3 ± 6.4 µM; in test [2] (setting [4]), 35.3 ± 15 µM.
Consider `O=C(Cn1cnc2c(oc3ccccc32)c1=O)NCc1c[nH]nn1` [182_787 1], for which the values for the IC50 in test [1] (setting [5]) and in test [2] (setting [6]) were 95.5 µM and 143 µM, respectively.
As to `O=C(CCC(=O)NCc1c[nH]nn1)NCCCCCCCCNC(=O)Cn1cnc2c(oc3ccccc32)c1=O` [182_787 4], the IC50 in test [1] (setting [5]) was 193 µM; in test [2] (setting [6]), 134 µM.
The corresponding values for `O=C(CSCCNC(=O)Cn1cnc2c(oc3ccccc32)c1=O)NCc1c[nH]nn1` [182_787 24] are 45.9 µM and 126 µM.
Consider `Cn1c(O)nc2cc(C(=O)NCCCCC=CC(=O)CC(=O)NCCNC(=O)Cn3cnc4c(oc5ccccc54)c3=O)cnc21` [182_826 12], for which the IC50 worked out at 62.3 µM in test [1] (setting [5]) and 131 µM in test [2] (setting [6]).
Regarding `O=C(Cn1cnc2c(oc3ccccc32)c1=O)NCCNC(=O)c1cncc(O)c1` [182_828 1], the figures for the IC50 in test [1] (setting [5]) and in test [2] (setting [6]) were 77.1 µM and 92.1 µM, respectively.
As to `O=C(Cn1cnc2c(oc3ccccc32)c1=O)NCCCCCCCCNC(=O)c1cncc(O)c1` [182_828 4], the IC50 is 188 µM in test [1] (setting [5]) and 233 µM in test [2] (setting [6]).
Turning to `O=C(Cn1cnc2c(oc3ccccc32)c1=O)NCCOCCOCCNC(=O)c1cncc(O)c1` [182_828 10], the IC50 in test [1] (setting [5]) came out at 43 µM; in test [2] (setting [6]), 99.6 µM.
The corresponding values for `O=C(/C=C/CCCCNC(=O)c1cncc(O)c1)CC(=O)NCCNC(=O)Cn1cnc2c(oc3ccccc32)c1=O` [182_828 12] are 50.3 µM and 45.9 µM.
Consider `O=C(CSCCNC(=O)c1cncc(O)c1)NCCNC(=O)Cn1cnc2c(oc3ccccc32)c1=O` [182_828 24], for which the IC50 came out at 33.3 µM in test [1] (setting [5]) and 35.3 µM in test [2] (setting [6]).
